The results in this text go back to patent US20120010206A1, “IMIDAZOLOPYRIDINE COMPOUNDS USEFUL FOR THE TREATMENT OF DEGENERATIVE AND INFLAMMATORY DISEASES” (priority 2006, published 2012).

The target of test [1] is T1, TAK1-TAB1 fusion protein (Homo sapiens, UniProt O43318).
T1 construct: purchased Upstate 14-600
T1 sequence (O43318 with tags, fused parts or gaps limits assumed): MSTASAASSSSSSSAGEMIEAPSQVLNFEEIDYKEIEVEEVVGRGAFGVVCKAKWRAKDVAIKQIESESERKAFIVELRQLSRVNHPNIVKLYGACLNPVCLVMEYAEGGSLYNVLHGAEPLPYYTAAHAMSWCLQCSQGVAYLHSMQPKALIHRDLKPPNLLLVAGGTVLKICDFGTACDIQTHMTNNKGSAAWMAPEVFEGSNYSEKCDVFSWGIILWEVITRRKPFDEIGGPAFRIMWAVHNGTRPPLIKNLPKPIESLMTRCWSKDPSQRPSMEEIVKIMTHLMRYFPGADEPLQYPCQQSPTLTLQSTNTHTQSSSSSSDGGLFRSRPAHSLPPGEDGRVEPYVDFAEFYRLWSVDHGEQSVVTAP
The test is described as follows: In vitro TAK1 kinase assay (33P-ATP, casein substrate). In kind it is biochemical. The settings on record: semi-quantitative score, at least two independent experiments. How it is done:
For assessing TAK1 inhibition, active TAK1-TAB1 fusion protein was used from Upstate (Cat. No, 14-600). Kinase reactions are set up in 96-well polypropylene plates in 25 μL containing 0.5 mU TAK1-TAB1 fusion protein, […], 0.01 μCi/μL [^33P]-γ-ATP, 0.1 mg/mL casein substrate in 1× reaction buffer containing 10 mM MOPS pH 7.0, 1 mM EDTA.
Starting from the compound master stocks (all at 10 mM concentration in 100% DMSO) a 3-fold serial dilution is made in 96-well plates in 100% DMSO. Plates are further diluted […] in H2O containing 3.5% DMSO, to obtain an intermediate work stock with compounds at 5× the final assay concentration in 5% DMSO.
5 μL of the intermediate stock is transferred into V-bottom 96 well polypropylene plates and 11 μL of Enzyme mix is added. Enzyme mix is made by combining 5 μL 5× reaction buffer ([…] pH 7.0, 1 mM EDTA), 5 μL casein (Sigma) diluted in H2O to 0.5 mg/mL and 1 μL of TAK1-TAB1 fusion protein that was prediluted to 0.5 mU/μL in 1× enzyme dilution buffer (20 mM MOPS pH 7.0, 0.1 mM EDTA, 0.01% Brij-35, 5% glycerol, 1 mM DTT, 1 mg/ml BSA).
The reactions are started by the addition of 9 μL of mixture containing ATP (20.83 uM) and [^33P]-γ-ATP (0.028 μCi/μL).
The assay is stopped 90 minutes after incubation at 30° C. by the addition of 25 μL phosphoric acid (150 mM). The label incorporated into the casein substrate is separated from labeled unincorporated ATP by filtration onto 96-well filter plates using a harvester device. After 6 washes with 75 mM phosphoric acid, the bottom of the filter plates are sealed, and incorporated label is quantified after addition of 40 μL scintillation fluid using TopCount.
Based on these percent inhibition data obtained in at least two independent experiments for the compounds, compounds are ranked using semi-quantitative scores. Table A below lists a number of compounds which have been or can be prepared according to the synthetic methods described herein. Semi-quantitative score: • *>3001 nM • ** 1001-3000 nM • *** 101-1000 nM • ****<100 nM

The test system of test [2] is MMP1 expression from activated SFs (RASF). The test is described as follows: MMP assay: MMP1 expression (ELISA) by TNF-α-triggered RASFs. In kind it is cell-based. The following applies: RASF triggered with TNFα, MMP1 ELISA after 48 hrs, semi-quantitative score. The procedure: A 384-well format ELISA for measurement of MMP1 is developed. Various primary antibodies are tested, as well as various ELISA protocols. The following protocol is developed and validated to measure MMP1 levels in SF supernatant in 384 well plates: white Lumitrac 600 384 well plates (Greiner) are coated with 2 μg/mL anti-MMP1 antibody MAB1346 (Chemicon). The antibody is diluted in buffer 40 (1.21 g Tris base (Sigma), 0.58 g NaCl (Calbiochem) and 5 mL 10% NaN3 (Sigma) in 1 L milliQ water and adjusted to pH 8.5). After overnight incubation at 4° C., plates are washed with PBS (80 g NaCl, 2 g KCl (Sigma), 11.5 g Na2HPO4.7H2O and 2 g KH2PO4 in 10 L milliQ; pH 7.4) and blocked with 100 μL/well Casein buffer (2% Casein (VWR International) in PBS). Next day, casein buffer is removed from ELISA plates and replaced by 50 μL/well EC buffer (4 g casein, 2.13 g Na2HPO4 (Sigma), 2 g bovine albumin (Sigma), 0.69 g NaH2PO4.H2O (Sigma), 0.5 g CHAPS (Roche), 23.3 g NaCl, 4 mL 0.5 M EDTA pH 8 (Invitrogen), 5 mL 10% NaN3 in 1 L milliQ and adjusted to pH 7.0). 0.25 mM DTT (Sigma) is added to the thawed sample plates. After removal of the EC buffer, 20 μL of sample is transferred to the ELISA plates. After overnight incubation at 4° C. plates are washed twice with PBS and once with PBST (PBS with 0.05% Tween-20 (Sigma)) and incubated with 35 μL/well biotinylated anti-MMP1 antibody solution (R&D). This secondary antibody is diluted in buffer C (0.82 g NaH2PO4.H2O, 4.82 g Na2HPO4, 46.6 g NaCl, 20 g bovine albumin and 4 ml, 0.5M EDTA pH 8 in 2 L milliQ and adjusted to pH 7.0) at a concentration of 5 μg/mL. After 2 h of incubation at RT, plates are washed as described above and incubated with 50 μL/well streptavidin-HRP conjugate (Biosource). Streptavidin-HRP conjugate is diluted in buffer C at a concentration of 0.25 μg/mL. After 45 min, plates are washed as described above and incubated for 5 min with 50 μL/well BM Chem ELISA Substrate (Roche). Readout is performed on the Luminoscan Ascent Luminometer (Labsystems) with an integration time of 200 msec or with an Envision reader (Perkin Elmer).
SFs were acquired at passage 1 from a commercial supplier (Cell applications, Inc.). SFs are cultured in DMEM supplemented with 10% heat-inactivated FBS, 1× penicillin/streptomycin (Invitrogen) at 37° C., 10% CO2 until passage 6. Aliquots of the cells are frozen and cryopreserved in liquid nitrogen. Starting from a cryopreserved aliquot, cells are further expanded by sub-culturing cells at 1/3 ratio every week. Cells between passage 10 and 12 are routinely used in compound testing according to the following protocol.
Starting from the compound master stocks (all at 10 mM concentration in 100% DMSO) a 3-fold serial dilution is made in 96-well plates in 100% DMSO. Then, plates are further diluted 45-fold in M199 medium supplemented with 1% heat-inactivated FBS to obtain a intermediate work stock.
At day 1, RASFs are seeded in 96 well plates (flat bottom, tissue culture treated, Greiner) at a density of 3000 cells/well in complete synovial growth medium (Cell Applications). Day 5, the medium is completely removed from the cells, and replaced by 81 μL of M199 medium supplemented with 1% heat-inactivated FBS followed by addition of 10 μL compound out of the intermediate work stock. After an incubation period of 90 minutes, which allows the compounds to equilibrate and enter the cells, cells are stimulated with either TNF-α or ‘complex trigger’. TNF-α trigger is added in a volume of […] to obtain final concentration of 10 ng/mL. For that, TNF-α stock (PeproTech) at 10 μg/mL was diluted to 100 ng/mL TNF-α in M199 medium supplemented with 1% FBS. ‘Complex trigger’ mix is added in a volume of 20 μL to obtain a final concentration of 12.5%. For that, ‘complex trigger’ mix, is diluted to 80% with M199 medium supplemented with 1% FBS. […]

Compound `Cc1n[nH]c(C)c1-c1ccc(Nc2ccc(N3CCOCC3)cc2)c2nccn12` [Compound 92] displayed an IC50 in test [1] above 3 µM. The compound also came in with an EC50 in test [2] above 3 µM.

With `CC(C)N1CCN(c2ccc(Nc3ccc(-c4ccc5c(c4)CNC5=O)n4ccnc34)cc2C(F)(F)F)CC1` [Compound 27, 5-(8-(4-(4-isopropylpiperazin-1-yl)-3-(trifluoromethyl)phenylamino)imi-dazo[1,2-a]pyridin-5-yl)isoindolin-1-one], the IC50 in test [1] lay in the range of 0.101 to 1 µM. Further, the EC50 in test [2] was above 3 µM.

As for `CC(C)N1CCN(c2ccc(Nc3ccc(-c4ccc(C(N)=O)cc4)n4ccnc34)cc2F)CC1` [Compound 11, 4-{8-[3-Fluoro-4-(4-isopropyl-piperazin-1-yl)-phenylamino]-imidazo[1,2-a]pyridin-5-yl}-benzamide], the IC50 in test [1] was 0.101 to 1 µM. In test [2], this compound came in with an EC50 above 3 µM.

`CCN(CC)CCNS(=O)(=O)c1ccc(Nc2ccc(-c3ccc4c(c3)CNC4=O)n3ccnc23)cc1` [Compound 22, N-(2-(diethylamino)ethyl)-4-(5-(1-oxoisoindolin-5-yl)imidazo[1,2-a]pyridin-8-ylamino)benzene sulfonamide] returned an IC50 in test [1] of 0.101 to 1 µM. Moreover, in test [2], the EC50 is 1 to 3 µM.

Turning to `CCN(CC)CCNC(=O)c1ccc(Nc2ccc(-c3ccc4c(c3)CNC4=O)n3ccnc23)cc1` [Compound 23, N-(2-(diethylamino)ethyl)-4-(5-(1-oxoisoindolin-5-yl)imidazo[1,2-a]pyridin-8-ylamino) benzamide], in test [1], the IC50 was below 0.1 µM. The same compound came in with an EC50 in test [2] above 3 µM.

With `Fc1cc(Nc2ccc(-c3cn[nH]c3)n3ccnc23)ccc1N1CCOCC1` [Compound 69], the IC50 in test [1] was 0.101 to 1 µM. The compound further registered an EC50 in test [2] of 1 to 3 µM.

In test [1], `CC(=O)Nc1ccc(-c2ccc(Nc3ccc(N4CCN(C(C)C)CC4)cc3)c3nccn23)cc1` [Compound 70] came in with a half-inhibitory concentration (IC50) above 3 µM. Moreover, the EC50 in test [2] is above 3 µM.

Compound `CN(C)C1CCN(C(=O)c2ccc(Nc3ccc(-c4ccc5c(c4)CNC5=O)n4ccnc34)cc2)C1` (stereo not shown) [Compound 39, 5-(8-(4-(3-(dimethylamino)pyrrolidine-1-carbonyl)phenyl-amino)imidazo[1,2-a]pyridin-5-yl)isoindolin-1-one] showed an IC50 in test [1] below 0.1 µM. This compound returned an EC50 in test [2] above 3 µM.

Regarding `NC(=O)c1ccc(-c2ccc(Nc3ccc(N4CCN(C5CCC5)CC4)cc3)c3nccn23)cc1` [Compound 78], in test [1], the IC50 was in the range of 0.101 to 1 µM. Moreover, the EC50 in test [2] was above 3 µM.

In turn, `NC(=O)c1ccc(-c2ccc(Nc3ccc(N4CCOCC4)c(F)c3)c3nccn23)cc1` [Compound 66] displayed an IC50 in test [1] of 1 to 3 µM. In test [2], this compound returned an EC50 of 0.101 to 1 µM.

Compound `CS(=O)(=O)c1ccc(Nc2ccc(-c3cc[nH]c(=O)c3)n3ccnc23)cc1` [Compound 64] came in with an IC50 in test [1] of 0.101 to 1 µM. The EC50 in test [2] was 1 to 3 µM.

Turning to `NC(=O)c1ccc(-c2ccc(Nc3ccc(N4CCN(C5CCCCC5)CC4)cc3)c3nccn23)cc1` [Compound 77], the IC50 in test [1] fell in the range of 0.101 to 1 µM. The same compound had an EC50 in test [2] of 1 to 3 µM.

In turn, `CC(C)N1CCN(c2ccc(Nc3ccc(-c4ccc5c(c4)CNC5=O)n4ccnc34)cc2)CC1` [Compound 12, 5-{8-[4-(4-Isopropyl-piperazin-1-yl)-phenylamino]-imidazo[1,2-a]pyridin-5-yl}-2,3-dihydro-isoindol-1-one] returned an IC50 in test [1] below 0.1 µM. The EC50 in test [2] lay in the range of 0.101 to 1 µM.

In turn, `CNS(=O)(=O)c1ccc(Nc2ccc(-c3ccc4c(c3)CNC4=O)n3ccnc23)cc1` [Compound 24, N-methyl-4-(5-(1-oxoisoindolin-5-yl)imidazo[1,2-a]pyridin-8-ylamino)benzene sulfonamide] returned an IC50 in test [1] of 0.101 to 1 µM. For the same compound, in test [2], the EC50 lay within 1 to 3 µM.

In turn, `CS(=O)(=O)c1ccc(Nc2ccc(-c3cn[nH]c3)n3ccnc23)cc1` [Compound 71] displayed an IC50 in test [1] of 0.101 to 1 µM. The same compound yielded an EC50 in test [2] of 1 to 3 µM.

`O=c1cc(-c2ccc(Nc3ccc(C4CCN(CC(F)F)CC4)cc3)c3nccn23)cc[nH]1` [Compound 107, 4-(8-{4-[1-(2,2-Difluoro-ethyl)-piperidin-4-yl]-phenylamino)-imidazo[1,2-a]pyridin-5-yl)-1H-pyridin-2-one]: the IC50 in test [1] was in the range of 1 to 3 µM. In test [2], the EC50 fell in the range of 1 to 3 µM.

As to `CC(C)CCN1CCN(c2ccc(Nc3ccc(-c4cc[nH]c(=O)c4)n4ccnc34)cc2)CC1` [Compound 86], in test [1], the IC50 was in the range of 0.101 to 1 µM. In test [2], the EC50 lay within 1 to 3 µM.

Take `CCCN1CCN(c2ccc(Nc3ccc(-c4ccc(C(N)=O)cc4)n4ccnc34)cc2)CC1` [Compound 76]: the IC50 in test [1] was in the range of 0.101 to 1 µM. Moreover, the EC50 in test [2] was 0.101 to 1 µM.

For `CN(C)C(=O)c1ccc(Nc2ccc(-c3ccc4c(c3)CNC4=O)n3ccnc23)cc1` [Compound 14, N,N-dimethyl-4-(5-(1-oxoisoindolin-5-yl)imidazo[1,2-a]pyridin-8-ylamino)benzamide], the IC50 in test [1] was in the range of 0.101 to 1 µM. The compound further displayed an EC50 in test [2] above 3 µM.

`NC(=O)c1ccc(-c2ccc(Nc3ccc(N4CCN(C5CC5)CC4)cc3)c3nccn23)cc1` [Compound 83] showed an IC50 in test [1] of 1 to 3 µM. In test [2], the EC50 was above 3 µM.

A word on the IC50: it is the concentration that gives 50% inhibition. A high value points to lower potency. For orientation: EC50 means the concentration that produces a half-maximal response. Lower therefore signals an effect from little substance.
